pIC50: −log10 of the molar value. In brackets after ≈: the same amount, converted by molar mass. Activity calls are given as the source filed them. The rule behind the calls is not given here.
Columns and labels:
Isocitrate lyase = Isocitrate lyase (Candida albicans, UniProt Q9P8Q7); experiment: Inhibition of Candida albicans ICL assessed as formation of glyoxylate phenylhydrazone by spectrophotometry
Bacillus subtilis = experiment: Antibacterial activity against Bacillus subtilis ATCC 6633 after 24 hrs by broth dilution method; type: functional; conditions: ATCC 6633, 24 h
Micrococcus luteus = experiment: Antibacterial activity against Micrococcus luteus IFC 12708 after 24 hrs by broth dilution method; type: functional; conditions: IFC 12708, 24 h
Proteus vulgaris = experiment: Antibacterial activity against Proteus vulgaris ATCC 3851 after 24 hrs by broth dilution method; type: functional; conditions: ATCC 3851, 24 h
Candida albicans = experiment: Antifungal activity against Candida albicans ATCC 10231 at 100 ug/ml after 2 weeks; type: functional, organism-based
Aspergillus fumigatus = experiment: Antifungal activity against Aspergillus fumigatus HIC 6094 at 100 ug/ml after 2 weeks; type: functional, organism-based
Salmonella typhimurium = experiment: Antibacterial activity against Salmonella Typhimurium ATCC 14028 after 24 hrs by broth dilution method; type: functional, Salmonella enterica subsp. enterica serovar Typhimurium; conditions: Salmonella enterica, ATCC 14028, 24 h
Trichophyton rubrum = experiment: Antifungal activity against Trichophyton rubrum IFO 9185 at 100 ug/ml after 2 weeks; type: functional, organism-based
[1] = system: Trichophyton mentagrophytes; experiment: Antifungal activity against Trichophyton mentagrophytes IFO 40996 at 100 ug/ml after 2 weeks; type: functional, organism-based
[2] = Inhibition of porcine cerebral cortex Na+/K+ ATPase by spectrophotometry; type: tissue-based, Sus scrofa

Isocitrate lyase, sequence (Q9P8Q7 whole entry): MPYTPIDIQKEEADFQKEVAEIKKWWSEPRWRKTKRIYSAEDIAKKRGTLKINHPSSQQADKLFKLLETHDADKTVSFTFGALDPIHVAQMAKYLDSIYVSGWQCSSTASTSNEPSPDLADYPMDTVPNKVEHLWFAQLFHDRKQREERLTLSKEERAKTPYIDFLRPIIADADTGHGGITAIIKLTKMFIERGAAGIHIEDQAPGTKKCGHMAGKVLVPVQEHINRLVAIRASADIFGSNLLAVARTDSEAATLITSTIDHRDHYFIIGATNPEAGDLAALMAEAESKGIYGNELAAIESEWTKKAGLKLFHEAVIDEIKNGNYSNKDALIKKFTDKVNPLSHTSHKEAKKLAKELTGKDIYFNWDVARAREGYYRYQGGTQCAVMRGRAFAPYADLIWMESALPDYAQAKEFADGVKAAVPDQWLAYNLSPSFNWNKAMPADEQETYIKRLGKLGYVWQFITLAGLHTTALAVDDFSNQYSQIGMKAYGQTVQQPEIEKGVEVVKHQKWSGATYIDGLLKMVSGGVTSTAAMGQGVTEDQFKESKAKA

## CC(C)=C[C@@H](O)[C@@H](O)/C(C)=C/CC/C(C)=C/CC[C@]1(C)CCc2cc(O)cc(C)c2O1 [SARGACHROMANO D]
Isocitrate lyase
  pIC50: < 3.33

## CC1(C)S[C@@H]2[C@H](NC(=O)[C@H](N)c3ccccc3)C(=O)N2[C@H]1C(=O)O [AMPICILLIN]
Bacillus subtilis
  MIC: 0.78 µg/mL (≈ 2.23 µM)
Micrococcus luteus
  MIC: 0.78 µg/mL (≈ 2.23 µM)
Proteus vulgaris
  MIC: 0.78 µg/mL (≈ 2.23 µM)
Candida albicans
  inhibition: inactive
Aspergillus fumigatus
  inhibition: inactive
Salmonella typhimurium
  MIC: 0.78 µg/mL (≈ 2.23 µM)
Trichophyton rubrum
  inhibition: inactive
[1]
  inhibition: inactive

## CC(C)=CC(CO)/C(C)=C/CC/C(C)=C/CC[C@]1(C)CCc2cc(O)cc(C)c2O1 (stereo partly drawn) [SARGACHROMANOL L]
Isocitrate lyase
  pIC50: 3.93

## CC(C)=C[C@@H](O)C(=O)C(C)CCC/C(C)=C/CC[C@]1(C)CCc2cc(O)cc(C)c2O1 (stereo partly drawn) [SARGACHROMANOL I]
Isocitrate lyase
  pIC50: < 3.33

## COC(/C(C)=C/CC/C(C)=C/CC[C@]1(C)CCc2cc(O)cc(C)c2O1)[C@H](O)C=C(C)C (stereo partly drawn) [SARGACHROMANOL F]
Isocitrate lyase
  pIC50: < 3.35

## CC(C)=C[C@@H](O)C(=O)/C(C)=C/CC/C(C)=C/CC[C@]1(C)CCc2cc(O)cc(C)c2O1 [SARGACHROMANOL G]
Isocitrate lyase
  pIC50: < 3.33

## C[C@@H]1O[C@@H](O[C@H]2C[C@@H](O)[C@]3(CO)[C@H]4[C@H](O)C[C@]5(C)[C@@H](C6=CC(=O)OC6)CC[C@]5(O)[C@@H]4CC[C@]3(O)C2)[C@H](O)[C@H](O)[C@H]1O [OUABAIN]
[2]
  pIC50: 5.34
Candida albicans
  inhibition: inactive
Aspergillus fumigatus
  inhibition: inactive
Trichophyton rubrum
  inhibition: inactive
[1]
  inhibition: inactive

## CC(C)=C[C@H](O)[C@@H](O)/C(C)=C/CC/C(C)=C/CC[C@]1(C)CCc2cc(O)cc(C)c2O1 [SARGACHROMANOL E]
Isocitrate lyase
  pIC50: < 3.33

## O=C(O)CC[N+](=O)[O-]
Candida albicans
  inhibition: inactive
Aspergillus fumigatus
  inhibition: inactive
Trichophyton rubrum
  inhibition: inactive
[1]
  inhibition: inactive

## C/C(C=O)=C\CC/C(C)=C/CC[C@]1(C)CCc2cc(O)cc(C)c2O1 [SARGACHROMANOL A]
Isocitrate lyase
  pIC50: 3.73

## C/C(=C\CC[C@]1(C)CCc2cc(O)cc(C)c2O1)CCCC(C)C(=O)[C@@H](O)CC(C)C (stereo partly drawn) [SARGACHROMANOL J]
Isocitrate lyase
  pIC50: < 3.33

## C/C(=C\CC/C(C)=C/CC[C@]1(C)CCc2cc(O)cc(C)c2O1)CO [SARGACHROMANOL B]
Isocitrate lyase
  pIC50: < 3.24

## CC(C)=C/C(C=O)=C(/C)CCC/C(C)=C/CC[C@]1(C)CCc2cc(O)cc(C)c2O1 [SARGACHROMANOL M]
Isocitrate lyase
  pIC50: 3.76

## CC(C)=CC(C(=O)O)/C(C)=C/CC/C(C)=C/CC[C@]1(C)CCc2cc(O)cc(C)c2O1 (stereo partly drawn) [SARGACHROMANOL O]
Isocitrate lyase
  pIC50: < 3.33

## CC(C)=C/C(C=O)=C(\C)CCC/C(C)=C/CC[C@]1(C)CCc2cc(O)cc(C)c2O1 [SARGACHROMANO N]
Isocitrate lyase
  pIC50: < 3.31

## CC(C)=CC[C@@H](O)/C(C)=C/CC/C(C)=C/CC[C@]1(C)CCc2cc(O)cc(C)c2O1 [SARGACHROMANOL C]
Isocitrate lyase
  pIC50: < 3.31

## CC(C)=CC(=O)[C@@H](O)/C(C)=C/CC/C(C)=C/CC[C@]1(C)CCc2cc(O)cc(C)c2O1 [SARGACHROMANOL K]
Isocitrate lyase
  pIC50: < 3.33

## CC(C)=C[C@@H]1C(=O)C(C)=C[C@H]1C/C(C)=C/CC[C@]1(C)CCc2cc(O)cc(C)c2O1 [SARGACHROMANOL P]
Isocitrate lyase
  pIC50: 3.83

## C/C(=C\CC[C@]1(C)CCc2cc(O)cc(C)c2O1)C/C=C\C(C)C(=O)[C@H](O)CC(C)C (stereo partly drawn) [SARGACHROMANOL H]
Isocitrate lyase
  pIC50: < 3.33

Source: ChEMBL document CHEMBL1759859, “Sargachromanols as inhibitors of Na+/K+ ATPase and isocitrate lyase” (Bioorg Med Chem Lett, 2011)
